Test results from US20220033418A1, “HETEROCYCLENE DERIVATIVES AS PEST CONTROL AGENTS” (Bayer Aktiengesellschaft, priority 2018, published 2022).

How the values were obtained:
Myzus persicae [1] = assay: Myzus persicae spray test (MYZUPE), comparative, bell pepper plants; assay type: in vivo; details: 144 h, 6 dat (days after treatment), read-out: % Efficacy MYZUPE
Procedure: Myzus persicae—Spray Test (MYZUPE) Solvent: 14 parts by weight of dimethylformamide Emulsifier: alkylaryl polyglycol ether To produce a suitable active compound formulation, 1 part by weight of active compound is dissolved using the stated parts by weight of solvent and made up with water containing an emulsifier concentration of 1000 ppm until the desired concentration is attained. To produce further test concentrations, the formulation is diluted with emulsifier-containing water. If the addition of ammonium salts or/and penetrants is required, these are each added in a concentration of 1000 ppm to the formulation solution. Bell pepper plants (Capsicum annuum) severely infested with the green peach aphid (Myzus persicae) are treated by spraying with the active compound formulation in the desired concentration. After the desired time, the kill in % is determined. 100% means that all the animals have been killed; 0% means that no animals have been killed.

Diabrotica balteata [2] = assay: Diabrotica balteata drench test (DIABBA), comparative; assay type: in vivo; details: soil, 192 h, 8 dat (days after treatment), read-out: % Efficacy DIABBA
Procedure: Diabrotica balteata—Drench Test (DIABBA) Solvent: 7 parts by weight of dimethylformamide Emulsifier: 2 parts by weight of alkylaryl polyglycol ether To produce a suitable active compound preparation, 1 part by weight of active compound is mixed with the specified amounts of solvent and emulsifier, and the concentrate is diluted with water to the desired concentration, it being necessary to include the volume of soil which is drenched in the calculation. It should be ensured that a concentration of 40 ppm of emulsifier in the soil is not exceeded. To produce further test concentrations, water is used for dilution. In each case 5 […] (Zea mays) are sown into pots filled with earth, and the next day the pots are watered with the active compound preparation of the desired concentration. After one day, about 25 L2 larvae of the banded cucumber beetle (Diabrotica balteata) are added. After 8 days, the efficacy in % is determined. 100% means that all 5 plants have germinated and grown; 0% means that none of the plants has emerged.

Diabrotica balteata [3] = assay: Diabrotica balteata spray test; assay type: in vivo; details: 500 g/ha (=160 μg/cavity), after 7 days
Procedure: Diabrotica balteata—Spray Test Solvent: 78 parts by weight of acetone • • 1.5 parts by weight of dimethylformamide Emulsifier: alkylaryl polyglycol ether To produce a suitable active compound formulation, 1 part by weight of active compound is dissolved using the stated parts by weight of solvent and made up with water containing an emulsifier concentration of 1000 ppm until the desired concentration is attained. To produce further test concentrations, the formulation is diluted with emulsifier-containing water. Pre-swollen wheat grains (Triticum aestivum) are incubated in a multiwell plate filled with agar and a little water for one day (5 seed grains per cavity). The germinated wheat grains are sprayed with an active compound formulation of the desired concentration. Subsequently, each cavity is infected with 10-20 beetle larvae of Diabrotica balteata. After 7 days, the efficacy in % is determined. 100% means that all wheat plants have grown as in the untreated, uninfected control; 0% means that no wheat plant has grown.

Spodoptera frugiperda = Spodoptera frugiperda spray test; assay type: in vivo; details: 100 g/ha, corn leaf disks, after 7 days
Procedure: Spodoptera frugiperda—Spray Test Solvent: 78.0 parts by weight of acetone • • 1.5 parts by weight of dimethylformamide Emulsifier: alkylaryl polyglycol ether To produce a suitable active compound formulation, 1 part by weight of active compound is dissolved using the stated parts by weight of solvent and made up with water containing an emulsifier concentration of 1000 ppm until the desired concentration is attained. To produce further test concentrations, the formulation is diluted with emulsifier-containing water. Leaf disks of corn (Zea mays) are sprayed with an active compound formulation of the desired concentration and, after drying, populated with caterpillars of the fall armyworm (Spodoptera frugiperda). After 7 days, the efficacy in % is determined. 100% means that all the caterpillars have been killed; 0% means that no caterpillar has been killed.

Myzus persicae [4] = assay: Myzus persicae oral test; assay type: in vivo; details: 4 ppm, after 5 days
Procedure: Myzus persicae—Oral Test Solvent: 100 parts by weight of acetone To produce a suitable active compound formulation, 1 part by weight of active compound is dissolved using the specified parts by weight of solvent and made up with water until the desired concentration is attained. 50 μl of the active compound preparation are transferred into microtitre plates and made up to a final volume of 200 μl with 150 μl of IPL41 insect medium (33%+15% sugar). Subsequently, the plates are sealed with parafilm, which a mixed population of green peach aphids (Myzus persicae) within a second microtitre plate is able to puncture and imbibe the solution through. After 5 days, the efficacy in % is determined. 100% means that all the aphids have been killed; 0% means that no aphids have been killed.

[5] = log P by reversed-phase HPLC, acidic range; assay type: physicochemical; details: reversed-phase C18 HPLC column, formic acid in water/acetonitrile
Procedure: The log P values were determined according to EEC Directive 79/831 Annex V.A8 by HPLC (high-performance liquid chromatography) on a reversed-phase column (C18) using the following methods: ^[a] The log P value is determined by LC-UV measurement in the acidic range using 0.9 ml/1 formic acid in water and 1.0 ml/1 formic acid in acetonitrile as mobile phases (linear gradient from 10% acetonitrile to 95% acetonitrile). Calibration was carried out using a homologous series of straight-chain alkan-2-ones (having 3 to 16 carbon atoms) with known log P values. The values between successive alkanones are determined by linear regression.

Boophilus microplus = Boophilus microplus injection test; assay type: in vivo; details: 20 μg/animal, assessed after 7 days
Procedure: Boophilus microplus—Injection Test Solvent: dimethyl sulfoxide To produce a suitable active compound formulation, 10 mg of active compound are mixed with 0.5 ml of solvent and the concentrate is diluted to the desired concentration with solvent. 1 μl of the active compound solution is injected into the abdomen of 5 engorged adult female cattle ticks (Boophilus microplus). The animals are transferred into dishes and kept in a climate-controlled room. Efficacy is assessed after 7 days by laying of fertile eggs. Eggs which are not visibly fertile are stored in a climate-controlled cabinet until the larvae hatch after about 42 days. An efficacy of 100% means that none of the ticks has laid any fertile eggs; 0% means that all the eggs are fertile.

Ctenocephalides felis = Ctenocephalides felis oral test; assay type: in vivo; details: 100 ppm, oral via blood, after 2 days
Procedure: Ctenocephalides felis—Oral Test
Solvent: dimethyl sulfoxide
To produce a suitable active compound formulation, 10 mg of active compound are mixed with 0.5 ml of dimethyl sulfoxide. Dilution with citrated cattle blood gives the desired concentration.
About 20 unfed adult cat fleas (Ctenocephalides fells) are placed into a chamber which is closed at the top and bottom with gauze. A metal cylinder whose bottom end is closed with parafilm is placed onto the chamber. The cylinder contains the blood/active compound formulation, which can be imbibed by the fleas through the parafilm membrane.
After 2 days, the kill in % is determined. 100% means that all of the fleas have been killed; 0% means that none of the fleas have been killed.

Phaedon cochleariae = Phaedon cochleariae spray test; assay type: in vivo; details: 100 g/ha, Chinese cabbage leaf disks, after 7 days
Procedure: Phaedon cochleariae—Spray Test
Solvent: 78.0 parts by weight of acetone • • 1.5 parts by weight of dimethylformamide
Emulsifier: alkylaryl polyglycol ether
To produce a suitable active compound formulation, 1 part by weight of active compound is dissolved using the stated parts by weight of solvent and made up with water containing an emulsifier concentration of 1000 ppm until the desired concentration is attained. To produce further test concentrations, the formulation is diluted with emulsifier-containing water.
Disks of Chinese cabbage leaves (Brassica pekinensis) are sprayed with an active compound formulation of the desired concentration and, after drying, populated with larvae of the mustard beetle (Phaedon cochleariae).
After 7 days, the efficacy in % is determined. 100% means that all the beetle larvae have been killed; 0% means that no beetle larvae have been killed.

Myzus persicae [6] = assay: Myzus persicae spray test (Chinese cabbage leaf disks); assay type: in vivo; details: 100 g/ha, after 5 days
Procedure: Myzus persicae—Spray Test Solvent: 78 parts by weight of acetone • • 1.5 parts by weight of dimethylformamide Emulsifier: alkylaryl polyglycol ether To produce a suitable active compound formulation, 1 part by weight of active compound is dissolved using the stated parts by weight of solvent and made up with water containing an emulsifier concentration of 1000 ppm until the desired concentration is attained. To produce further test concentrations, the formulation is diluted with emulsifier-containing water. Disks of Chinese cabbage leaves (Brassica pekinensis) infested by all stages of the green peach aphid (Myzus persicae) are sprayed with an active compound formulation of the desired concentration. After 5 days, the efficacy in % is determined. 100% means that all the aphids have been killed; 0% means that no aphids have been killed.

Row | SMILES | Emax at 0.8 ppm (Myzus persicae [1]) | Emax at 0.8 ppm (Diabrotica balteata [2]) | efficacy (Diabrotica balteata [3]) | efficacy (Spodoptera frugiperda) | efficacy (Myzus persicae [4]) | chromatographic logP [5] | efficacy (no laying of fertile eggs) (Boophilus microplus) | efficacy (kill in %) (Ctenocephalides felis) | efficacy (Phaedon cochleariae) | efficacy (Myzus persicae [6])
1 | CCS(=O)(=O)c1c(-c2nc3cc(C(F)(F)F)cnc3n2C)nn2cc(C3(C#N)CC3)ccc12 [prior art according to WO2017/155103, reference compound] | 40% | 50% |  |  |  |  |  |  |  | 
2 | CCS(=O)(=O)c1c(-c2nc3cc4c(cc3n2C)OC(F)(F)O4)nn2cc(C3(C#N)CC3)ccc12 [Example I-3, 1-[2-(2,2-Difluoro-7-methyl-[1,3]dioxolo[4,5-f]benzimidazol-6-yl)-3-ethylsulfonylpyrazolo[1,5-a]pyridin-6-yl]cyclopropanecarbonitrile] |  |  | 100% | 100% | 100% | 3.18 |  |  |  | 
3 | CCS(=O)(=O)c1c(-c2nc3cc(OC(F)(F)C(F)(F)F)cnc3n2C)nn2cc(C3(C#N)CC3)ccc12 [Example I-5, 1-[3-Ethylsulfonyl-2-[3-methyl-6-(1,1,2,2,2-pentafluoroethoxy)imidazo[4,5-b]pyridin-2-yl]pyrazolo[1,5-a]pyridin-6-yl]cyclopropanecarbonitrile] |  |  | 100% | 100% |  | 3.76 |  |  |  | 
4 | CCS(=O)(=O)c1c(-c2nc3cc4c(nc3n2C)OC(F)(F)O4)nn2cc(C3(C#N)CC3)ccc12 [Example I-4, 1-[3-Ethylsulfonyl-2-[2,2-difluoro-7-methyl-[1,3]dioxoloimidazo[4,5-b]pyridin-6-yl]pyrazolo[1,5-a]pyridin-6-yl]cyclopropanecarbonitrile] |  |  |  | 100% | 100% | 3.22 | 80% | 100% | 100% | 90%
5 | CCS(=O)(=O)c1c(-c2nc3cc(OC(F)(F)F)ccc3n2C)nn2cc(C3(C#N)CC3)ccc12 [Example I-2, 1-[3-Ethylsulfonyl-2-[1-methyl-5-(trifluoromethoxy)benzimidazol-2-yl]pyrazolo[1,5-a]pyridin-6-yl]cyclopropanecarbonitrile] |  |  | 100% | 100% | 100% | 3.29 |  |  |  | 
6 | Cn1c(-c2nn3cc(C4(C#N)CC4)ccc3c2Br)nc2cc(OC(F)(F)F)cnc21 [1-[3-Bromo-2-[3-methyl-6-(trifluoromethoxy)imidazo[4,5-b]pyridin-2-yl]pyrazolo[1,5-a]pyridin-6-yl]cyclopropanecarbonitrile] |  |  |  |  |  | 3.9 |  |  |  | 
7 | CCS(=O)(=O)c1c(-c2nc3cc(OC(F)(F)F)cnc3n2C)nn2cc(C3(C#N)CC3)ccc12 [Example I-1, 1-[3-Ethylsulfonyl-2-[3-methyl-6-(trifluoromethoxy)imidazo[4,5-b]pyridin-2-yl]pyrazolo[1,5-a]pyridin-6-yl]cyclopropanecarbonitrile] | 100% | 80% |  | 100% | 100% | 3.18 |  | 100% | 100% | 100%
